Experimental data: PubChem BioAssay (NCI)
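Abbreviation: GI50, concentration required for 50% inhibition of growth. TGI: concentration producing complete growth inhibition.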

Columns and labels:
Experiment in all cases: NCI anticancer screen, dose series, 384-well format
[1] = test system: KM12 colon
[2] = test system: T-47D breast
[3] = test system: RXF 393 renal
[4] = test system: DU-145 prostate
[5] = test system: MDA-MB-435 melanoma
[6] = test system: SK-MEL-2 melanoma
[7] = test system: HCT-116 colon
[8] = test system: NCI/ADR-RES ovarian
[9] = test system: NCI-H23 lung
[10] = test system: HT29 colon
[11] = test system: A498 renal
[12] = test system: SW-620 colon
[13] = test system: HOP-92 NSCLC
[14] = test system: U251 glioblastoma
[15] = test system: SN12C renal
[16] = test system: M14 melanoma
[17] = test system: OVCAR-3 ovarian
[18] = test system: MDA-MB-231 breast
[19] = test system: NCI-H522 lung
[20] = test system: MCF7 breast
[21] = test system: BT-549 breast
[22] = test system: SNB-19 CNS
[23] = test system: SR leukemia
[24] = test system: SF-268 CNS
[25] = test system: UACC-257 melanoma
[26] = test system: 786-0 renal
[27] = test system: SK-OV-3 ovarian
[28] = test system: OVCAR-8 ovarian
[29] = test system: HCC-2998 colon
[30] = test system: SK-MEL-28 melanoma
[31] = test system: HL-60(TB) leukemia
[32] = test system: NCI-H460 NSCLC
[33] = test system: IGROV1 ovarian
[34] = test system: A549 NSCLC
[35] = test system: K-562 leukemia
[36] = test system: UACC-62 melanoma
[37] = test system: SNB-75 CNS
[38] = test system: TK-10 renal
[39] = test system: ACHN renal
[40] = test system: COLO 205 colon
[41] = test system: CCRF-CEM leukemia
[42] = test system: MOLT-4 leukemia
[43] = test system: HOP-62 NSCLC
[44] = test system: HS 578T breast
[45] = test system: SF-539 CNS
[46] = test system: EKVX NSCLC
[47] = test system: OVCAR-5 ovarian
[48] = test system: MALME-3M melanoma
[49] = test system: OVCAR-4 ovarian
[50] = test system: PC-3 prostate
[51] = test system: MDA-MB-468 breast
[52] = test system: SF-295 CNS
[53] = test system: RPMI-8226 leukemia
[54] = test system: NCI-H226 lung
[55] = test system: CAKI-1 renal
[56] = test system: LOX IMVI melanoma
[57] = test system: NCI-H322M lung
[58] = test system: HCT-15 colon
[59] = test system: UO-31 renal

## CO[C@H]1C[C@@H]2CC[C@@H](C)[C@@](O)(O2)C(=O)C(=O)N2CCCC[C@H]2C(=O)O[C@H]([C@H](C)C[C@@H]2CC[C@@H](O)[C@H](OC)C2)CC(=O)[C@H](C)C=C(C)[C@@H](O)[C@@H](OC)C(=O)[C@H](C)C[C@H](C)/C=C/C=C/C=C1C
[1]
  GI50: 10.2 µM
  TGI: 23.1 µM
[2]
  GI50: 1.33 µM
  TGI: 36.6 µM
[3]
  GI50: 12.5 µM
  TGI: 25.2 µM
[4]
  GI50: 4.69 µM
  TGI: 36.2 µM
[5]
  GI50: 11.6 µM
  TGI: 24.2 µM
[6]
  GI50: 11.2 µM
  TGI: 27.9 µM
[7]
  GI50: 8.71 µM
  TGI: 24.2 µM
[8]
  GI50: 14.9 µM
  TGI: 34.2 µM
[9]
  GI50: 12 µM
  TGI: 24.8 µM
[10]
  GI50: 6.66 µM
  TGI: 21.8 µM
[11]
  TGI: 17.4 µM
[12]
  GI50: 13 µM
  TGI: 26 µM
[13]
  GI50: 11 µM
  TGI: 25 µM
[14]
  GI50: 3.94 µM
  TGI: 20.3 µM
[15]
  GI50: 7.42 µM
  TGI: 24.5 µM
[16]
  GI50: 11 µM
  TGI: 23.7 µM
[17]
  GI50: 10.9 µM
  TGI: 24.2 µM
[18]
  GI50: 12 µM
  TGI: 24.5 µM
[19]
  GI50: 6.69 µM
  TGI: 21.4 µM
[20]
  TGI: 15.4 µM
[21]
  GI50: 3.98 µM
  TGI: 18.7 µM
[22]
  GI50: 6.46 µM
  TGI: 23.2 µM
[23]
  TGI: 1.89 µM
[24]
  GI50: 10.2 µM
  TGI: 23.8 µM
[25]
  GI50: 16 µM
  TGI: 29.6 µM
[26]
  GI50: 5.99 µM
  TGI: 26.9 µM
[27]
  GI50: 10.7 µM
  TGI: 22.9 µM
[28]
  GI50: 7.29 µM
  TGI: 22.6 µM
[29]
  GI50: 4.72 µM
  TGI: 18.6 µM
[30]
  GI50: 12.7 µM
  TGI: 25.5 µM
[31]
  GI50: 3.98 µM
  TGI: 7.97 µM
[32]
  TGI: 16.8 µM
[33]
  TGI: 15.3 µM
[34]
  TGI: > 45.4 µM
[35]
  GI50: 4.35 µM
  TGI: 18.4 µM
[36]
  GI50: 4.54 µM
  TGI: 19.7 µM
[37]
  GI50: 13 µM
  TGI: 25.8 µM
[38]
  GI50: 0.518 µM
  TGI: 27.5 µM
[39]
  GI50: 1.61 µM
  TGI: 23.4 µM
[40]
  GI50: 11.3 µM
  TGI: 23.4 µM
[41]
  TGI: 7.12 µM
[42]
  TGI: 4.88 µM
[43]
  TGI: 20.2 µM
[44]
  TGI: 9.94 µM
[45]
  GI50: 2.53 µM
  TGI: 19.6 µM
[46]
  GI50: 12.3 µM
  TGI: 29.1 µM
[47]
  GI50: 12.9 µM
  TGI: 27.4 µM
[48]
  TGI: 20.6 µM
[49]
  GI50: 9.82 µM
  TGI: 25.5 µM
[50]
  TGI: 17.9 µM
[51]
  TGI: 8.1 µM
[52]
  TGI: 20 µM
[53]
  TGI: 4.45 µM
[54]
  GI50: 10.3 µM
  TGI: 23.5 µM
[55]
  TGI: 21.5 µM
[56]
  GI50: 13.1 µM
  TGI: 25.8 µM
[57]
  GI50: 12.7 µM
  TGI: 25.8 µM
[58]
  GI50: 3.92 µM
  TGI: 19.7 µM
[59]
  GI50: 11 µM
  TGI: 23.2 µM
